Assay results as given in publication PMC11547703, “Design, Synthesis, and Evaluation of Doxifluridine Derivatives as Nitroreductase-Responsive Anticancer Prodrugs” (Molecules, 2024).
Read-outs that look alike come from different tables or passages of the source.

Experiments:
[1] = Stability of target compounds in mouse plasma, HPLC; type: in vitro ADME, C57BL/6 mice; conditions: 50 μM, 37 °C
Protocol: The stability of the target compounds was tested first, and excellent stability was essential for physiological function evaluation. Phosphate-buffered saline (PBS) of different pH values was used to evaluate the stability of the target compounds in a weakly acidic tumor microenvironment (pH 6.5) versus a weakly alkaline normal physiological environment (pH 7.4). […] The stability of the target compounds in mouse and rat plasma was excellent. The concentrations of all target compounds remained at >80% of the initial concentrations after 24 h, with the concentrations of compounds 1c, 2c, and 3c being 89%, 88%, and 83% in mouse plasma and 86%, 84%, and 81% in rat plasma, respectively (Figure 3c,d).
PBS (pH 7.4) was made with 137 mM NaCl, 2.7 mM KCl, 10 mM Na2HPO4, and 1.8 mM KH2PO4, while PBS (pH 6.5) was made with 24.6 mM Na2HPO4 and 175.4 mM NaH2PO4. The target compounds were dissolved into the different buffers (50 μM; 1% DMSO), and the mixtures were incubated at 37 °C. A 100-μL sample was transferred to a vial for HPLC analysis at 1, 2, 4, 8, 12, and 24 h. C57BL/6 mice and SD rat orbital whole blood was collected into anticoagulation tubes and centrifuged at 4000× g for 5 min at 4 °C to obtain plasma. The target compounds were dissolved into the plasma (50 μM; 1% DMSO) and incubated at 37 °C. Each sample (100 μL) was collected and precipitated using 100 μL of acetonitrile. The mixture was vortexed for 5 min and centrifuged at 10,000× g for 10 min. The supernatant was transferred to a vial for HPLC analysis after 1, 2, 4, 8, 12, and 24 h.

[2] = test system: HT29 human colon cancer cells; assay: In vitro cytotoxicity (MTT assay) in HT29 cells with or without NTR; type: cell-based; conditions: for IC50: Homo sapiens, HT-29, HT29, 24 h, MTT
Protocol: The cytotoxicity of the target compounds 1c–6c were evaluated in MCF-7 human breast cancer cells and HT29 human colon cancer cells. These two cell lines were chosen because 5′-DFUR is currently used to treat breast and gastrointestinal tumors. The cells were incubated with the target compounds at various concentrations for 24 h in the presence or absence of NTR. The cell viability and proliferation behavior were assessed by 3-(4,5-dimethylthiazol-2-yl)-2,5-diphenyltetrazolium (MTT) assay. The half-maximal inhibitory concentration values of the tested compounds for inhibiting cell proliferation are shown in Table 1.
MCF-7 human breast cancer cells or HT29 human colon cancer cells purchased from the National Collection of Authenticated Cell Cultures were cultured in RPMI 1640 medium, and McCoy’s 5A medium supplemented with 10% fetal bovine serum and 1% penicillin-streptomycin in a humidified 5% CO2 incubator at 37 °C. Cells in the logarithmic growth phase were inoculated into 96-well plates at a density of 1.0 × 10^4 cells per well and cultured for 24 h. The target compounds were dissolved in DMSO and diluted in medium to different concentrations. The cells were then incubated with different concentrations of the target compound for 24 h. The cells in the NTR treatment group were incubated with various concentrations of compounds, NTR (final concentration, 50 µg/mL) and NADH (final concentration, 2 mM) for 24 h. Cell viability and proliferation were measured by MTT assay. Cell viability was calculated according to the following formula: cell viability (%) = (OD value of treatment group–OD value of blank group)/(OD value of control group–OD value of blank group) × 100. The half-maximal inhibitory concentration values were calculated from concentration-response curves using GraphPad PRISM (version 5.0, GraphPad, San Diego, CA, USA).

HT29 colon cancer cells = assay: In vivo antitumor activity in HT29 tumor-bearing mice
Protocol: Compound 2c, which has excellent stability, a high metabolic rate, and strong cytotoxicity under NTR conditions in vitro, was selected for the in vivo evaluation of antitumor activity in tumor-bearing mice. Tumor-bearing mice were generated by the axillary injection of HT29 colon cancer cells into C57BL/6 mice. When the tumors grew to approximately 100–150 mm^3, the mice were randomly divided into negative control (vehicle), compound 2c (50 mg/kg), and positive control 5′-DFUR (50 mg/kg) groups (n = 6 each). The mice were injected intraperitoneally every 2 days for 4 weeks, and the tumor volume and body weight of the mice were measured every 2 days. No death occurred in any group of mice during the experimental period.
Four-week-old C57BL/6 mice were purchased from Jinan Pengyue Experimental Animal Breeding Co. Ltd. (Jinan, China). The mice were housed in cages under a 12-h light/dark cycle from 7:00 to 19:00 at controlled temperatures (25–26 °C) and relative humidity (50 ± 10%) throughout the experimental period. All animals were allowed to eat and drink freely unless otherwise stated and allowed to acclimate for 1 week before the experiment. All animal experimental protocols were performed in accordance with applicable institutional and governmental regulations concerning the ethical use of animals (AP2024022954).
The tumor-bearing mice model was established by the subcutaneous injection of HT29 cells (1 × 10^7 cells/mL) purchased from the National Collection of Authenticated Cell Cultures to the right axilla of C57BL/6 mice (100 µL/mouse). When the tumor size reached 100–150 mm^3, the mice were evenly divided into negative control (vehicle), group 2c (50 mg/kg), and 5′-DFUR (50 mg/kg) groups (n = 6 each). Compound 2c and 5′-DFUR were dissolved in a solution containing 10% ethanol, 10% castor oil, and 80% saline that also served as the negative control. The mice were injected intraperitoneally every 2 days for 4 weeks, and the tumor volumes and body weights of the mice were measured every 2 days. Tumor volume was calculated using the following formula: tumor volume = length (mm) × width (mm) × width (mm) × 0.5. The TGI rate was determined as follows: TGI = 1 − (treatment final volume − treatment initial volume)/(control final volume − control initial volume) × 100%.

SMILES: C[C@H]1O[C@@H](n2cc(F)c(=O)n(Cc3ccc([N+](=O)[O-])o3)c2=O)[C@H](O)[C@@H]1O [Compound 2c]
- concentration relative to initial concentration after 24 h in mouse plasma [1]: 88%
- IC50 (NTR-Free)/ IC50 (NTR) ([2]; HT29, selectivity ratio): 7.62
- IC50 ([2]; medium with NTR and NADH 2 mM, read-out: IC50 NTR): 57.4 µM
- IC50 ([2]; medium without NTR, read-out: IC50 NTR-Free): 437 µM
- drug-related toxic reactions (in words) (HT29 colon cancer cells; 50 mg/kg i.p. every 2 days for 4 weeks): No significant drug-related toxic reactions were observed
- body weight of mice (in words) (HT29 colon cancer cells; 50 mg/kg i.p. every 2 days for 4 weeks, versus positive control 5′-DFUR group): smaller weight fluctuations and were slightly higher than those of the positive control group
- tumor growth inhibition (TGI) rate (HT29 colon cancer cells; 50 mg/kg intraperitoneally every 2 days for 4 weeks, HT29 tumor-bearing C57BL/6 mice): 77.5%
